Test results from patent publication US5281608A, “Substituted tetrahydropyrido[3',4':4,5]-pyrrolo[3,2-c]quinolines” (American Home Products Corporation, priority 1992, dated 1994).
Converted amounts (≈) assume the structure as drawn.

Tests used:
[1] = tested on: rat limb bones (PTH-induced bone resorption); assay: Bone resorption assay (45Ca release from rat limb bones), PTH-induced; format: cell-based, rat (Sprague-Dawley CD); conditions: 48 h; for IC50: Rattus norvegicus, read-out: Inhibition of Bone Resorption, PTH-Induced (IC50)
Method: (§1) The ability of the compounds of the invention to modify the process of bone resorption is evaluated in the bone resorption assay measuring ^45 Ca release from rat limb bones.
(§2) Limb bone preparation. Timed pregnant Sprague-Dawley CD® rats (Charles River) are administered 100 μCi ^45 CaCl2 (NEN calcium -45 NEZ-013) in 100 μl of 0.9% saline, subcutaneously, on day 18 of gestation. The rats are sacrificed the following day by CO2 asphyxiation. The fetuses are removed and the right forelimbs excised and placed in a Petri dish containing ice cold explant medium consisting of modified BGJb -Fitton Jackson media (custom formulation, Gibco No. 78-0088) adjusted to pH 7.3 to which 10 mM TES is added. The modified BGJb media is obtained without salts, glucose or bicarbonate and is supplemented before use with 0.1 mM MgCl2, 1.25 mM CaCl2, 5.3 mM KCl, 0.7 mM MgSO4, 130 mM NaCl, 1.0 mM NaH2 PO4, 1 g/L glucose, 50 mg/L Na acetate and 100 U/ml penicillin G. The medium is sterilized by passage through a 0.2 μ M filter (Nalge). Under a dissecting microscope, the bones are gently cleaned of adherent tissue and the cartilaginous ends removed. Incubation and drug treatment. The midshafts are placed, individually, on 3×3 mm squares of filter paper (Gelman GN-6 metricel filters; […] pore size) which rest on stainless steel screens in wells of 24-well culture plates containing 0.5 mL of preincubation medium. The preincubation medium is brought to 37° C. prior to transfer of bones. The preincubation medium consists of the modified BGJb medium (with salts and glucose as above), pH 7.3, containing 29 mM NaHCO3. After incubation for 18-24 hours at 37° C. in 5% CO2, the bones are transferred on their screen/filter paper supports to new plates containing, in a total volume of 0.5 mL/well at 37° C., the test compound diluted in preincubation medium supplemented with 15% heat inactivated horse serum (Gibco No. 230-6050), pH 7.3, with a bone resorption stimulating agent (e.g. parathyroid hormone [PTH] or interleukin-1 [IL-1]). For compounds that require nonaqueous solvents, dilutions are made from the appropriate stock solution with medium. In these instances, basal and bone resorption stimulated controls exposed to an equivalent concentration of the vehicle are included. An additional group of bones that have been subjected to boiling for 1 hour (kill control) are used to establish background, non cell mediated, exchange of ^45 Ca. The right ulna and radius from each fetus are used. Both bones are subjected to the same treatment and each treatment group consists of bones from 4 or more fetuses. Treatments are randomly assigned using a preclinical statistics program (PS-ALLOC). After a 48 hour incubation at 37° C. in 5% CO2, the bones are removed from the medium and extracted in 0.5 mL of 0.1N HCl for 1 or more days. Duplicate 150 μL aliquots of the incubation medium and the bone extract are analyzed for ^45 Ca radioactivity in 5 mL of liquid scintillation cocktail.
(§3) The percentage of bone ^45 Ca released into the medium is determined as follows: [formula] Results are normally expressed as the ratio of the percent ^45 Ca release of the experimental group versus the appropriate vehicle control, or as an IC50 value.

[2] = tested on: rabbit articular chondrocytes (IL-1-induced neutral protease release); assay: Inhibition of IL-1-induced release of neutral protease from rabbit articular chondrocytes; format: cell-based, rabbit (Male New Zealand White); conditions: Oryctolagus cuniculus, Chondrocyte, human IL-1 stimulated, 24 h
Method: The ability of the compounds of the invention to inhibit interleukin 1 is measured by the ability of the test compounds to inhibit the IL-1-induced release of neutral protease from rabbit articular chondrocytes.
Male New Zealand White rabbits are anesthetized with 50 mg/kg of ketamine (i.m.) and killed by an intracardiac injection of 3 mls. of Nembutal. The knee joints of both legs are resected and the articular surfaces are exposed. Cartilage slices are obtained using a scalpel and are placed in a tissue culture dish (100 mm diameter) containing 10 mls of Hank's balanced salt solution (HBSS). The chondrocytes within the cartilage slices are then liberated by a series of enzyme digestions. The slices are incubated for 10 minutes at 37° C. in 0.05% hyaluronidase (Sigma H-3884), rinsed with HBSS and incubated with 0.2% trypsin (Sigma T-2395) for 10 minutes at 37° C. The slices are rinsed again and incubated for 10 minutes at 37° C. with 1.2% collagenase (Sigma C-5138). The slices are then rinsed again with HBSS and resuspended in 10 ml of Ham's F-12 medium containing 10% fetal bovine calf serum (FCS) and 0.2 % collagenase and incubated overnight at 37° C. in a 5% CO2 incubator. The next day, the medium containing the digested cartilage fragments and liberated chondrocytes is transferred to a 15 ml centrifuge tube and the cells are collected by centrifugation and washed twice and resuspended in Ham's F-12 medium. The cells are then plated into 24-well tissue culture plates (2×10^5 cells/well) and incubated at 37° C. until confluent (usually 4-6 days).
The confluent chondrocytes are rinsed twice with serum-free Ham's F-12 medium and 1 ml is added to each well. Fifty μl of purified human IL 1 (100 Units/ml; Genzyme Corporation, Boston, Mass.) is then added to stimulate these cells to secrete neutral protease. To measure drug effects, the cells are treated with test compound 10 minutes prior to addition of IL-1. The standard screening dose is 10 μM. Twenty-four hours after IL-1 stimulation, supernatant fluids are collected and assayed for neutral protease activity.
The neutral protease activity of chondrocyte supernatant fluids is determined by their ability to degrade an insoluble protease substrate, azocoll (Sigma). Supernatants are treated for 10 minutes at room temperature with 350 μM p-aminophenylmurcuric acetate to activate the latent enzyme. Three hundred μl of supernatant is then mixed with 500μl of a 20 mg/ml suspension of azocoll and incubated at 37° C. for 18-24 hours with gentle rocking. The mixtures are centrifuged and the amount of substrate hydrolyzed is determined by measuring the absorbance of the supernatant at 520 nm.
Drug effects are calculated as the % change in enzyme activity (absorbance)by supernatants from drug-treated chondrocytes relative to enzyme activity of supernatants from vehicle-treated chondrocytes as follows: [formula]

[3] = tested on: rat limb bones (IL-1 induced bone resorption); assay: Bone resorption assay (45Ca release from rat limb bones), IL-1 induced; format: cell-based, rat (Sprague-Dawley CD); conditions: 48 h; for IC50: Rattus norvegicus, read-out: Inhibition of Bone Resorption, IL-1 Induced (IC50)
Method: as §1, §2, §3

SMILES	Inhibition of Bone Resorption, PTH-Induced (activity in words) [1]	inhibition at 10 µM [2] [%]	Inhibition of Bone Resorption, IL-1 Induced (activity in words) [3]	IC50 [3] [µg/mL]	IC50 [1] [µg/mL]	inhibition at 1 µM ([2]; dose 1 μM) [%]
O=C(c1ccncc1)N1CCc2[nH]c3c(cnc4cc(Cl)ccc43)c2C1 [Example 8, 3-Chloro-8,9,10,11-tetrahydro-8-(4-pyridinylcarbonyl)-7H-pyrido[3',4':4,5]pyrrolo[3,2-c]quinoline]	Active at 10 μg/ml	35	Active	1.96 (≈ 5.4 µM)	–	–
O=C(c1ccco1)N1CCc2[nH]c3c(cnc4cc(Cl)ccc43)c2C1 [Example 9, 3-Chloro-8-(2-furanylcarbonyl)-8,9,10,11-tetrahydro-7H-pyrido[3',4':4,5]pyrrolo[3,2-c]quinoline]	Active	36	Active	0.307 (≈ 0.873 µM)	2.88 (≈ 8.19 µM)	–
O=S(=O)(c1cccs1)N1CCc2[nH]c3c(cnc4cc(Cl)ccc43)c2C1 [Example 11, 3-Chloro-8,9,10,11-tetrahydro-8-(2-thienylsulfonyl)-7H-pyrido [3',4':4,5]pyrrolo[3,2-c]quinoline]	Active	–	Active	0.018 (≈ 0.0446 µM)	0.144 (≈ 0.357 µM)	< 20
O=C(Oc1ccccc1)N1CCc2[nH]c3c(cnc4cc(Cl)ccc43)c2C1 [Example 12, 3-Chloro-7,9,10,11-tetrahydro-8H-pyrido[3',4':4,5]pyrrolo-[3,2-c]quinoline-8-carboxylic Acid Phenyl Ester]	Active	< 20	Active	0.76 (≈ 2.01 µM)	0.274 (≈ 0.725 µM)	–
